Assay results taken from PMC8005375, “Massiliamide, a cyclic tetrapeptide with potent tyrosinase inhibitory properties from the Gram-negative bacterium Massilia albidiflava DSM 17472^T” (The Journal of Antibiotics, 2020).
Square brackets hold non-standard residues; d marks the D form. Peptide text beside a SMILES is read from it.

What was measured:
A. baumannii 09987 = conditions: cation-adjusted Mueller-Hinton medium, twofold serial dilution (CLSI), 5 × 10^5 CFU per mL, overnight, 37°C
Description: (§1) The minimal inhibitory concentration (MIC) was determined in a cation-adjusted Mueller-Hinton medium that contains casein, beef extract and starch by using a twofold serial dilution method according to the standards and guidelines of the Clinical and Laboratory Standards Institute (CLSI). In brief, a twofold serial dilution of the test compound was prepared in microtiter plates and seeded using a final inoculum of bacteria of 5 × 10^5 colony-forming units per mL. […] The strain panel included representative species of nosocomial pathogens, which are known as “ESKAPE” bacteria. Specifically, the following strains were used: Enterococcus faecium BM 4147–1, Staphylococcus aureus ATCC 29213, Klebsiella pneumoniae ATCC 12657, Acinetobacter baumannii 09987, Pseudomonas aeruginosa ATCC 27853 and Enterobacter aerogenes ATCC 13048. Bacillus subtilis 168 and Escherichia coli ATCC 25922 were used as further reference strains. The ATCC strains were provided by the American Type Culture Collection. A. baumannii 09987 was obtained from the University of Bonn, Germany.

B. subtilis 168 = conditions: cation-adjusted Mueller-Hinton medium, twofold serial dilution (CLSI), 5 × 10^5 CFU per mL, overnight, 37°C
Description: as §1

E. aerogenes ATCC 13048 = conditions: cation-adjusted Mueller-Hinton medium, twofold serial dilution (CLSI), 5 × 10^5 CFU per mL, overnight, 37°C
Description: as §1

E. coli ATCC 25922 = conditions: cation-adjusted Mueller-Hinton medium, twofold serial dilution (CLSI), 5 × 10^5 CFU per mL, overnight, 37°C
Description: as §1

E. faecium BM 4147-1 = conditions: cation-adjusted Mueller-Hinton medium, twofold serial dilution (CLSI), 5 × 10^5 CFU per mL, overnight, 37°C
Description: as §1

K. pneumonia ATCC 12657 = conditions: cation-adjusted Mueller-Hinton medium, twofold serial dilution (CLSI), 5 × 10^5 CFU per mL, overnight, 37°C
Description: as §1

P. aeruginosa ATCC 27853 = conditions: cation-adjusted Mueller-Hinton medium, twofold serial dilution (CLSI), 5 × 10^5 CFU per mL, overnight, 37°C
Description: as §1

[1] = test system: strain panel of "ESKAPE" bacteria, Bacillus subtilis 168 and Escherichia coli ATCC 25922; conditions: broth microdilution, up to the highest concentration tested (64 µg ml^−1)
Description: as §1

HeLa cell line = HeLa cell line at 64 µg ml^−1; resazurin assay
Description: The cytotoxicity test against the HeLa human cervical carcinoma cell line was performed in RPMI cell culture medium supplemented with 10% fetal bovine serum using the 7-hydroxy-3H-phenoxazin-3-one-10-oxide (resazurin) assay. A twofold serial dilution of the test compounds was prepared in duplicates in a microtiter plate and seeded with trypsinized HeLa cells to a final cell concentration of 1 × 10^4 cells per well. After 24 h incubation at 37°C, 5 % CO2, 95% relative humidity, resazurin was added at a final concentration of 200 µM, and cells were again incubated overnight. Cell viability was assessed by determining the reduction of resazurin to the fluorescent resorufin. Fluorescence was measured in a TECAN M200 reader at an excitation wavelength of 560 nm and an emission wavelength of 600 nm in relation to the untreated control.

tyrosinase = tyrosinase (Agaricus bisporus, UniProt C7FF04); experiment: Tyrosinase inhibition assay (kit MAK257); format: biochemical; conditions: comparison of IC50 values with arbutin and kojic acid
Description: In brief, 20 µL massiliamide (1) with various concentrations (0.05–5 µM) was added into 50 µL tyrosinase enzyme solutions that contained 48 µL MAK257A buffer and 2 µL of tyrosinase. The mixture was then incubated for 10 min at 25°C, followed by the addition of 30 µL substrate solution, containing 23 µL MAK257A buffer, 2 µL tyrosinase substrate, and 5 µL tyrosinase enhancer. The final reaction mixture was then homogenized by shaking and immediately monitored at 510 nm using a Tecan Infinite 200 Pro microplate reader, applying the kinetic mode for 30-60 min. […] Each measurement was conducted in three independent replications.

S. aureus ATCC 2921 = conditions: cation-adjusted Mueller-Hinton medium, twofold serial dilution (CLSI), 5 × 10^5 CFU per mL, overnight, 37°C
Description: The minimal inhibitory concentration (MIC) was determined in a cation-adjusted Mueller-Hinton medium that contains casein, beef extract and starch by using a twofold serial dilution method according to the standards and guidelines of the Clinical and Laboratory Standards Institute (CLSI) [10]. In brief, a twofold serial dilution of the test compound was prepared in microtiter plates and seeded using a final inoculum of bacteria of 5 × 10^5 colony-forming units per mL.

tyrosinase, sequence (C7FF04 whole entry): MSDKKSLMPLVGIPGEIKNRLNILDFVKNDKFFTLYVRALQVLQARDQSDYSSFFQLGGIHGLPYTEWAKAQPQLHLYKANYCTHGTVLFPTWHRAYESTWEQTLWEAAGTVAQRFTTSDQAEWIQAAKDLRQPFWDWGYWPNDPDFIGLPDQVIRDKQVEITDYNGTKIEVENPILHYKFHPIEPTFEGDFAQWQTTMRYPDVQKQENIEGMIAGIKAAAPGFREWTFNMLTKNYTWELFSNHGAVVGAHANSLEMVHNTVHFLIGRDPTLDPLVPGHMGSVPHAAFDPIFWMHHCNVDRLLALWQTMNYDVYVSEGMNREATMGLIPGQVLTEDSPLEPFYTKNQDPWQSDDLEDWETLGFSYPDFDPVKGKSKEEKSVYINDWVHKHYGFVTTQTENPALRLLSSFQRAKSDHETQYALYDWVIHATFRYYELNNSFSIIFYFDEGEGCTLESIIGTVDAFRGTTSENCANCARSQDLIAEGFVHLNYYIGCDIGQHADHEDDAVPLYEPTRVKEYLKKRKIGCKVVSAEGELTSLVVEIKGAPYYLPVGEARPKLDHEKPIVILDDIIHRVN

CC(C)[C@H]1NC(=O)[C@@H]2CCCN2C(=O)[C@@H](Cc2ccc(O)cc2)NC(=O)[C@@H]2CCCN2C1=O [Massiliamide (1)] (cyclo(P[dY]P[dV]))
MIC (A. baumannii 09987): > 64 µg/mL
MIC (B. subtilis 168): > 64 µg/mL
MIC (E. aerogenes ATCC 13048): > 64 µg/mL
MIC (E. coli ATCC 25922): > 64 µg/mL
MIC (E. faecium BM 4147-1): > 64 µg/mL
MIC (K. pneumonia ATCC 12657): > 64 µg/mL
MIC (P. aeruginosa ATCC 27853): > 64 µg/mL
Antimicrobial activity (in words) [1]: inactive up to the highest concentration tested
Cytotoxicity (in words) (HeLa cell line): no cytotoxicity
Tyrosinase inhibition compared with positive controls (in words) (tyrosinase): surpassed readily the activities of the positive controls arbutin and kojic acid
MIC (S. aureus ATCC 2921): > 64 µg/mL
